Assay results reported in PMC10610505, “Synthesis and Biological Evaluation of Some New 3-Aryl-2-thioxo-2,3-dihydroquinazolin-4(1H)-ones and 3-Aryl-2-(benzylthio)quinazolin-4(3H)-ones as Antioxidants; COX-2, LDHA, α-Glucosidase and α-Amylase Inhibitors; and Anti-Colon Carcinoma and Apoptosis-Inducing Agents” (Pharmaceuticals, 2023).
Values joined by “and” are separate entries in the source; they are usually repeats but may differ in a detail not shown here. Equal entries are not always repeated. Where two headings read alike, the source gives them in different places.

Key:
α-amylase = experiment: In vitro α-amylase (AA) inhibition assay; conditions: mean ± SD of three replicates; for IC50: read-out: Mean IC50 α-Amylase (AA)
Protocol: Then, 180 µL of Labtest (the amylase substrate) was added and the samples were incubated for 8 min, followed by measuring the first reaction at 620 nm to obtain (X1). Afterwards, the reaction mixture was incubated for an additional 5 min at 37 °C; then, the second reaction was measured to obtain the final reading (X2). […] The results were expressed as IC50 µg/mL (as well as µM) and were determined from the standard curves.

[1] = tested on: HCT-116 human colon carcinoma cells; experiment: Viability assay (LDH release), HCT-116; format: cell-based; conditions: for viability at 200 µg/mL / IC50: Homo sapiens; for viability at 200 µg/mL: read-out: Mean % of viable cells ± SD, HCT-116; for IC50: HCT-116, from concentration–response curves
Protocol: (§1) The anticancer activities of all the synthesized compounds were assessed against two human colon carcinoma cell lines, namely LoVo and HCT-116 (Table 6), via the determination of the mean percents of the viable cancerous cells remaining after being incubated with 200 µg/mL of each test compound for 48 h using LDH assay.
(§2) The samples were diluted in Dulbecco’s Modified Eagle’s Medium, consisting of 10% fetal bovine serum (FBS), added to cells grown and cultured for 24 h in a 5% CO2-humidified incubator at 37 °C. Thereafter, the activity of lactate dehydrogenase released from damaged cells was determined in the collected supernatant aliquots using an ELISA end-point assay (Benchmark Plus, Bio-Rad, CA, USA); 0.1% Triton X-100 in the assay medium and the assay medium only were used as the positive and negative controls, respectively. Cell viability was expressed as a relative percentage of the OD values (at 550 nm) for compound-treated cells (final concentration of 200 µg /mL) and the negative control, which was shown as the mean % ± SD (n = 3). The results of the viability assays for the potential cytotoxic candidates were compared with the % of viable human umbilical vein endothelial cells (HUVEC) at the same concentration. These cells were grown in Dulbecco’s Modified Eagle’s Medium (PAN-Biotech; Barcelona, Spain) containing 10% FBS (Sigma Aldrich; St. Quentin-Fallavier, France), 2 mM Glutamine (Sigma Aldrich), 100 units/mL penicillin and […] streptomycin (Life Technologies; Paisley, UK).

[2] = Viability assay (LDH release), HUVEC; format: cell-based, human; conditions: human
Protocol: as §2

[3] = tested on: LoVo human colon carcinoma cells; experiment: Viability assay (LDH release), LoVo; format: cell-based; conditions: for viability at 200 µg/mL / IC50: Homo sapiens, LoVo; for viability at 200 µg/mL: read-out: Mean % of viable cells ± SD, LoVo; for IC50: from concentration–response curves
Protocol: as §1, §2

[4] = target: purified recombinant human LDHA protein (Homo sapiens, UniProt P00338); experiment: Lactate dehydrogenase A (LDHA) inhibitory assay; format: biochemical; conditions: for Fold change of LDHA inhibition as compared to 0.1 mg/mL: % inhibition at 0.200 mg/mL divided by % inhibition at 0.100 mg/mL; for inhibition at 100 µg/mL / inhibition at 200 µg/mL: read-out: LDHA mean % inhibition ± SD
Protocol: The LDHA inhibitory effectiveness was investigated by measuring the amounts of consumed NADH [73]. […] The fluorescence of NADH, which has an excitation wavelength of 340 nm and an emission wavelength of 460 nm, was detected using a spectrofluorometer. […] The LDHA inhibitory efficiency was expressed as an inhibition percentage, which was determined via a comparison with the negative control experiments.

COX-2 = target: T1, COX-2 (Homo sapiens, UniProt P35354); experiment: COX-2 inhibitory screening assay (Cayman kit); format: biochemical; conditions: for Increase in COX-2 inhibitory efficiency by duplicating the concentration: % inhibition at 0.200 mg/mL divided by % inhibition at 0.100 mg/mL; for inhibition at 100 µg/mL / inhibition at 200 µg/mL: read-out: COX-2 mean % inhibition ± SD
T1 construct: purchased Cayman Chemical Company 701080
T1 sequence (P35354 18-604): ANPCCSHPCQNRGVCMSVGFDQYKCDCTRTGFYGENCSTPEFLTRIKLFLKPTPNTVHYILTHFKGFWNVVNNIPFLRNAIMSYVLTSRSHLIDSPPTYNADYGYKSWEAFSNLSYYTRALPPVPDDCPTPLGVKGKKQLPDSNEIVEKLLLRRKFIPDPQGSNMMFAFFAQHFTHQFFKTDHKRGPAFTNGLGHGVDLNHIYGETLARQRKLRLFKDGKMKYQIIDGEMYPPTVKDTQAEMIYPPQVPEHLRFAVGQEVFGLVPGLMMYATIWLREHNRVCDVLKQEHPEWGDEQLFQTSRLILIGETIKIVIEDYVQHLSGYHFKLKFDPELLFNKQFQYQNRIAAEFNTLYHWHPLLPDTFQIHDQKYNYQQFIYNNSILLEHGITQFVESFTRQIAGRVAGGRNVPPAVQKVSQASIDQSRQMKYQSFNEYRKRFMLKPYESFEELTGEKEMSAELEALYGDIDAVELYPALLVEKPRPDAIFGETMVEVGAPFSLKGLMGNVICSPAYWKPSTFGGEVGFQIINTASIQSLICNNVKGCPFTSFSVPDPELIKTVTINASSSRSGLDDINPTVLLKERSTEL
Protocol: Each compound of the two series, 3a–h and 5a–h, was resuspended in 100% DMSO at a final concentration of 10 mg/mL. […] Briefly, 10 µL of the tested compound was added to a mixture of the reaction buffer solution (160 µL of 0.1 M Tris-HCl, pH 8.0, in the presence of 2 mM phenol and 5 mM EDTA), COX-2 (10 µL) and heme (10 µL). After a 10 min incubation at 37 °C, the reaction was started by adding arachidonic acid (10 µL), rapidly mixed and kept at 37 °C for 2 min. PGF2α generated via PGH2 reduction with stannous chloride (30 µL) was incubated at room temperature for 5 min. The PGF2α amount was then determined via an enzyme immunoassay. Prior to incubation with the COX-2 reaction (at room temperature 18 h), the 96-well plate was previously coated with a mouse anti-rabbit monoclonal antibody. Unbound reagents were removed by washing the plate followed by adding Ellman’s reagent to the well. The reaction product displaying a distinct yellow color was measured at 410 nm using a UV microplate reader. The % inhibition was calculated by comparing the PGF2α produced in the compound-treated samples with a control sample, using the following equation: % inhibition is equal to [([PGF2α]control − [PGF2α]sample) /[PGF2α ]control ] × 100. […] The COX-2 inhibitory efficiency was expressed as an inhibition percentage, which was determined via a comparison with the negative control experiments.

[5] = DPPH radical scavenging assay; format: biochemical; conditions: for Mean IC50 for scavenging initial DPPH radicals: mean ± SD of three replicates; for IC50: mean ± SD, converted from mg/mL, read-out: Mean IC50 for scavenging initial DPPH radicals (converted)
From the text: In principle, the antioxidant power of a compound in this assay is correlated to its tendency to reduce the stable, purple-colored DPPH radical through a hydrogen atom transfer (HAT) mechanism and/or a single electron transfer mechanism, thereby converting it to the yellow-colored 2,2-diphenyl-1-picrylhydrazine, whereby this reduction is accompanied by a depletion in the amount of the initial DPPH radicals and a change in the absorbance of the test solution accordingly, which can be detected relative to the blank solution at λ = 517 nm.
The antioxidant potencies of all synthesized compounds were investigated using a 1,1 diphenyl-2-picrylhydrazyl (DPPH) radical scavenging assay according to the protocol described by Bersuder et al.. In brief, a 0.5 mL volume of DPPH ethanolic solution was mixed with an equal volume of each sample concentration (i.e., the test compound or butylated hydroxytoluene, BHT, which was used as the reference antioxidant in the positive control experiment), shaken strongly, and incubated at room temperature for 1 h in darkness. The absorbance of the residual DPPH radicals was measured at λ = 519 nm and compared to the negative control (without the test compound or reference antioxidant). The DPPH radical scavenging power was calculated using the following formula: scavenging efficiency (%) = (1 − Acompound/AControl) × 100, where Acompound and Acontrol are the absorbance of the tested compound and the negative control, respectively. […] Additionally, the ± SD values were calculated from three independent triplicate measurements.

[6] = target: α-glucosidase enzyme from Saccharomyces Cerevisiae (Saccharomyces cerevisiae, UniProt P53341); experiment: In vitro α-glucosidase (AG) inhibitory activity; conditions: mean ± SD of three replicates
Protocol: Then, the reaction was allowed to start by adding 150 µL of the color reagent 4-NPGP and the resulting mixture was incubated for additional 15 min at 37 °C. Collectively, the colorimetric assay medium contained 2U of α-glucosidase, 5 mM of 4-NPGP and 10 mM of the potassium phosphate buffer with a pH of 6.9. […] The inhibitory efficiency of each compound was expressed as IC50 µg/mL (as well as µM), which was calculated from the corresponding calibration curve.

[7] = tested on: non-tumoral human umbilical vein endothelial cells (HUVEC); experiment: Viability assay (LDH release), HUVEC; format: cell-based; conditions: Homo sapiens, HUVEC
Protocol: as §2

[8] = human umbilical vein endothelial cells (HUVEC), 200 µg/mL, read-out: Mean % of viable cells ± SD, HUVEC

Sequence of α-glucosidase enzyme from Saccharomyces Cerevisiae (P53341 whole entry): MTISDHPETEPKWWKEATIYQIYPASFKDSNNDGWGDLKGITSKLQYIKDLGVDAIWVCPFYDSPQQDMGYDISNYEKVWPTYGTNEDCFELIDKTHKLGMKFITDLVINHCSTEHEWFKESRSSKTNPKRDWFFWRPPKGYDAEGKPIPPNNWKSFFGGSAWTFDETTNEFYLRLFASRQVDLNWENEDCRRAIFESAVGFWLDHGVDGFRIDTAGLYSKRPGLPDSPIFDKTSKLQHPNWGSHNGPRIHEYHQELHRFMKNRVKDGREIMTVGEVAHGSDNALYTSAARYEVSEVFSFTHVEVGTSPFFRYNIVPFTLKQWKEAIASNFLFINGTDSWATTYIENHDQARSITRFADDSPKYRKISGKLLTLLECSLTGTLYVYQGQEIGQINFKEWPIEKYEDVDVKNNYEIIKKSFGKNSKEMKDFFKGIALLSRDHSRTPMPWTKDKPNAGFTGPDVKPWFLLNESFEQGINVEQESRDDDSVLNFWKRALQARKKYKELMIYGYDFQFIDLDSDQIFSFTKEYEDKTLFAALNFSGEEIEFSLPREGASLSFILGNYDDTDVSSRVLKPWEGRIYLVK

Row | SMILES | Mean IC50 α-Amylase (AA) (α-amylase) [µg/mL] | IC50 (α-amylase) [µM] | viability at 200 µg/mL ([1]; HCT-116, 48 h) [%] | IC50 [1] | viability at 200 µg/mL ([3]; 48 h) [%] | IC50 [3] | Fold change of LDHA inhibition as compared to 0.1 mg/mL [4] [fold] | inhibition at 100 µg/mL ([4]; at 0.1 mg/mL) [%] | inhibition at 200 µg/mL ([4]; at 0.2 mg/mL) [%] | Increase in COX-2 inhibitory efficiency by duplicating the concentration (COX-2) [fold] | inhibition at 100 µg/mL (COX-2; at 0.100 mg/mL) [%] | inhibition at 200 µg/mL (COX-2; at 0.200 mg/mL) [%] | Mean IC50 for scavenging initial DPPH radicals [5] [µg/mL] | IC50 [5] [µM] | viability at 200 µg/mL [2, 8] [%] | further results
1 | COc1cc2[nH]c(=S)n(-c3cccc(C(F)(F)F)c3)c(=O)c2cc1OC [Compound 3c, 6,7-Dimethoxy-2-thioxo-3-(3-trifluoromethyl-phenyl)-2,3-dihydro-1H-quinazolin-4-one] | 92.000 ± 3.000 | 241 | 65 ± 3.61 | 281 µg/mL and 735 µM | 47.3 ± 2.52 | 275 µg/mL and 720 µM | 0.20 | 17.8 ± 1.56 | 30.8 ± 1.77 | 2.05 | 9.85 ± 1.63 | 20.2 ± 1.13 | 100 ± 14 | 262 |  | viability at 200 µg/mL [2]: 99.67 ± 0.577%
2 | O=c1c2cc(Br)ccc2[nH]c(=S)n1-c1ccc([N+](=O)[O-])cc1 [Compound 3g, 6-Bromo-3-(4-nitro-phenyl)-2-thioxo-2,3-dihydro-1H-quinazolin-4-one] | 179.333 ± 7.768 | 474 | 42.3 ± 2.52 | 168 µg/mL and 444 µM | 55.7 ± 3.06 | 222 µg/mL and 586 µM |  | 68.2 ± 4.6 | 100 | 1.65 | 60 ± 2.83 | 98.9 ± 1.56 | 62.5 ± 2 | 165 | 98.7 ± 1.16 | IC50 ([4]; mean ± SD of three replicates): 242 µM; IC50 (COX-2; mean ± SD of three replicates): 252 µM
3 | O=c1c2cc(Cl)ccc2nc(SCc2ccc(Cl)cc2)n1-c1ccc(C(F)(F)F)cc1 [Compound 5d, 2-(4-Chloro-benzylsulfanyl)-6-chloro-3-(4-trifluoromethyl-phenyl)-3H-quinazolin-4-one] | 181.667 ± 5.508 | 377 |  |  |  |  | 1.47 |  |  | 1.68 |  |  | 200 ± 28 | 416 |  | Mean IC50 α-Glucosidase (AG) [6]: 38.100 ± 0.656 µg/mL; IC50 ([6]; read-out: Mean IC50 α-Glucosidase (AG)): 79.2 µM; Mean % of viable cells ± SD, HCT-116 ([1]; 200 µg/mL, 48 h): 86.667 ± 1.528%; Mean % of viable cells ± SD, LoVo ([3]; 200 µg/mL, 48 h): 76.000 ± 1.732%; LDHA mean % inhibition ± SD ([4]; at 0.1 mg/mL): 13.850 ± 2.051%; LDHA mean % inhibition ± SD ([4]; at 0.2 mg/mL): 20.400 ± 1.980%; COX-2 mean % inhibition ± SD (COX-2; at 0.100 mg/mL): 26.300 ± 1.839%; COX-2 mean % inhibition ± SD (COX-2; at 0.200 mg/mL): 44.050 ± 1.344%
4 | O=c1[nH]cc(F)c(=O)[nH]1 [Compound 5-FU, 5-Fluorouracil, reference compound] |  |  |  | 11.8 µg/mL and 91.1 µM |  | 2.91 µg/mL and 22.4 µM |  |  |  |  |  |  |  |  | 57.3 ± 2.52 | Selectivity index (IC50 normal cell / IC50 cell line), HCT-116 ([1]; HUVEC vs HCT-116): 25.190; IC50 [7]: 298 µg/mL and 2.29 mM; Selectivity index (IC50 normal cell / IC50 cell line), LoVo ([3]; HUVEC vs LoVo): 102.577
5 | O=c1c2cc(Br)ccc2nc(SCc2ccc(Cl)cc2)n1-c1cccc(C(F)(F)F)c1 [Compound 5b, 2-(4-Chloro-benzylsulfanyl)-6-bromo-3-(3-trifluoromethyl-phenyl)-3H-quinazolin-4-one] | 162.000 ± 5.568 | 308 |  | 246 µg/mL and 468 µM |  | 161 µg/mL and 306 µM | 1.55 | 14.5 ± 1.13 | 22.5 ± 1.7 | 2.11 | 9.25 ± 1.77 | 19.5 ± 2.12 | 167 ± 10 | 318 | 96.33 ± 0.577 | viability at 200 µg/mL ([1]; HCT-116, 200 µg/mL, 48 h): 60.3 ± 2.52%; viability at 200 µg/mL ([3]; 200 µg/mL, 48 h): 37.7 ± 2.52%
